Results taken from US6670399B2, “Compounds and methods for modulating cerebral amyloid angiopathy” (Neurochem (International) Limited, priority 1999, dated 2003).

Tested on: hAPP transgenic mice
Assay: Extent of CAA in brain sections of hAPP transgenic mice after 8 weeks of treatment, Thioflavin S staining
Assay type: in vivo
Settings: for # of animals with CAA: nine week old hAPP transgenic mice
Experimental: The ability of compounds of the invention to inhibit CAA was measured in the following example. Nine week old hAPP transgenic mice were treated for a period of 8 weeks with two different concentrations of a compound of the present invention, 3-amino-1-propanesulfonic acid, sodium salt, 100 and 30 mg/kg. Mice were administered the compound for 8 weeks, after which they were sacrificed and their brains were perfused and processed for histological staining with Thioflavin S. This method may also be used as a screening method for determining activity of a candidate compound for inhibiting CAA.
The extent of CAA in brain sections obtained from these animals was qualitatively determined following staining.

[1] = 100 mg/kg (printed 100 mg · kg), hAPP transgenic mice
[2] = 100 and 30 mg/kg, hAPP transgenic mice, versus vehicle

## NCCCS(=O)(=O)[O-].[Na+] [3-amino-1-propanesulfonic acid, sodium salt]
30 mg/kg, hAPP transgenic mice
  CAA Severity + (slight deposition), animals with grade/animals with CAA: 6/10
  CAA Severity ++ (moderate deposition), animals with grade/animals with CAA: 4/10
  CAA animals/total animals: 10/11
30 mg/kg, 11 animals in study
  # of animals with CAA: 10
[1]
  CAA Severity + (slight deposition), animals with grade/animals with CAA: 9/10
  CAA Severity +++ (severe deposition), animals with grade/animals with CAA: 1/10
  CAA animals/total animals: 10/15
100 mg/kg (printed 100 mg · kg), 15 animals in study
  # of animals with CAA: 10
[2]
  effect on the severity of the deposition seen in the brain vasculature: showing an effect
  reducing the number of mice showing CAA: effective
